Data reported in patent US5459256A, “Lipophilic, aminohydrolase-activated prodrugs” (priority 1991, dated 1995).
“Also recorded” adds a separate entry of the source.

Tests used:
[1] = tested on: HIV-1/IIIB (CD4^+ ATH8 cells); experiment: HIV cytopathic effect inhibition assay in ATH8 cells (% protection); type: cell-based; conditions: for inhibition at 10 µM: Human immunodeficiency virus 1, IIIB, ATH-8, 192 h
Protocol: HIV Cytopathic Effect Inhibition Assay.
The HIV cytopathic effect inhibition assay was performed as previously described. (Mitsuya, H. & Broder, S. Proc. Nat. Acad. Sci. USA 1986, 83, 1911) Briefly, 200,000 target CD4^+ ATH8 cells were exposed to cell-free HIV-1/IIIB at a dose of 43 (or 1087 for compound 1g) TCID50 (50% tissue culture infectious dose) for 1 h, resuspended in 2 ml of fresh culture media containing interleukin 2, and cultured at 37° C. with or without test compounds in 5% CO2 -containing humidified air. On day 8 in culture, the viable cells were counted by using the dye exclusion method. All compounds, including inactives, were evaluated a minimum of two times in separate experiments. Data reported in Table II are from representative tests. The % protection against the virus was determined by the following formula: 100 times [(the number of viable cells exposed to HIV-1 and cultured in the presence of the compound minus the number of viable cells exposed to HIV-1 and cultured in the absence of compound) divided by (the number of viable cells cultured alone minus the number of viable cells exposed to HIV-1 and cultured in the absence of the compound)]. The % toxicity of a compound on the target cells was determined by the following formula: 100 times [1 minus (the number of total viable cells cultured in the presence of the compound divided by the number of total viable cells cultured alone)]. Calculated percentages equal to or less than zero are expressed as 0%.
^a ATH8 cells were exposed to HIV1/IIIB per cell for 1 hr and
cultured in the presence of various concentrations of each compound. On
day 8, the total viable cells were counted. Orders of numbers in the
column for concentrations correspond to the orders of numbers in other

[2] = biological target: T1, adenosine deaminase (adenosine aminohydrolase, EC 3.5.4.4) (Bos taurus, UniProt P56658); experiment: Enzymatic deamination by adenosine deaminase (HPLC)
T1 sequence (P56658 1-363): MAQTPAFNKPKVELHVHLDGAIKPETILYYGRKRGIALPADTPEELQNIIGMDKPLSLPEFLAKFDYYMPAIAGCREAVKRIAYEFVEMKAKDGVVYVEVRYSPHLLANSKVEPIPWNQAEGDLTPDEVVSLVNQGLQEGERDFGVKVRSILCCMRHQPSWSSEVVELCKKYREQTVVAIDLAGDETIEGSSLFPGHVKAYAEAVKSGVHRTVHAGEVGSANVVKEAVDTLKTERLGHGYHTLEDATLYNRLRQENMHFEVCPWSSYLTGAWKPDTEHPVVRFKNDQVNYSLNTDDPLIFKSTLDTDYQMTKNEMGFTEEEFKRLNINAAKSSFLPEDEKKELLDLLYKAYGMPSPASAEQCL
Protocol: FIG. 1. Deamination of dideoxyadenosine analogues by adenosine deaminase. Hydrolysis kinetics and 2'-F-dd-ara-I formation during the incubation of 50 μM N^6 -CH3 -2'-F-dd-ara-A (1f) with 0.7 units/mL of adenosine deaminase at 37° C. A unit of adenosine deaminase is the amount of enzyme which hydrolyzes a standard substrate (e.g., adenosine) at the rate of 1.0 μmole/min at 25° C. and pH 7.5. […] Insert: Adenosine deaminase hydrolysis kinetics for 50 μM ddA and 2'-F-dd-ara-A. The hydrolysis curve for ddA has been extrapolated from kinetics obtained with 0.07 units/mL of adenosine deaminase under identical conditions.
A 50 μl aliquot of a 10 mg/ml suspension of adenosine deaminase (adenosine aminohydrolase, EC 3.5.4.4) from calf intestinal mucosa was centrifuged at 600×g for 3 min. The residue remaining after removal of the (NH4)2 SO4 supernatant was dissolved in 0.5 ml pH 7.4 tris(hydroxymethyl)-aminomethane (Tris) buffer to give an enzyme solution of 1 mg/ml (274 units/ml). […] A pH 7.4 buffer was prepared by adjusting 0.01M Tris to pH 7.4 with 0.5N HCl, The 1.0 HCl , HPLC-grade acetonitrile, monobasic potassium phosphate, sodium hydroxide and ultrapure Tris were all commercially available and were used without further purification.
Enzymatic Deamination of Adenosine Analogues. […] A 50 μL aliquot of substrate solution was diluted with 0.95 ml 0.01M Tris buffer in a 1.5-mL Eppendorf tube and equilibrated at 37° C. in a Dubnoff metabolic shaking incubator. Reaction was initiated by addition of 2.5 μL of adenosine deaminase solution (0.7 unit). At specified time intervals, a 50 μL aliquot of the reaction mixture was withdrawn and quenched by mixing with 0.45 mL cold 2 μM 2'-deoxycoformycin. This diluted sample was ultrafiltered to remove enzyme in a Centrifree Micropartition unit by centrifugation at 600×g at 4° C. in a high speed refrigerated centrifuge. The decrease in substrate concentration was monitored by HPLC analysis of the resultant ultrafiltrate (see below). The ability of 2'-deoxycoformycin to inhibit deamination under the above conditions was evaluated by adding 2 μL of 1.0 mM inhibitor to diluted substrate solutions at the time of equilibration. Reaction, sampling and analysis were carried out as above. […] Initial hydrolysis rates for each substrate concentration were measured through linear least-squares curve fitting of the concentration versus time data for reaction of the first 10% of substrate. KM and vmax values for each substrate were then determined from a graphical lineweaver-Burke plot of these initial rates (FIG. 1).
HPLC Analysis of Dideoxypurine Nucleosides.
Concentrations of dideoxynucleosides were measured by the HPLC analysis of 100 μL aliquots of ultrafiltered samples. A 4.6×250 mm 5-μm Ultrasphere-ODS column, protected by a Waters guard column packed with 37-50 μm Vydac 201SC, was eluted with 10-20% CH3 CN in 0.01M pH 7.0 phosphate buffer at a flow rate of 1.0 mL/min. Dideoxynucleosides and deamination products were detected at the appropriate wavelength of maximum absorption with a Gilson 116 variable wavelength detector. Peak identity was determined from coincidence of retention times with standards and by comparison of on-the-fly UV spectra obtained with a Perkin-Elmer LC-235 diode array detector. Peak areas and peak heights were measured simultaneously on a Spectra-Physics SP4200 computing integrator.

CNc1ncnc2c1ncn2[C@@H]1O[C@H](CO)C[C@@H]1F [Compound 1f, N^6 -Methyl-9-(2'3'-dideoxy-2'-fluoro-β-D-arabinofuranosyl)adenine]
% Protection ([1]; 10 μM, with dCF (2 μM), 11520 min): < 10% | anti-HIV activity in the presence of dCF (in words) ([1]; ATH8 cells, dCF added): protection was either abolished or greatly decreased; also recorded: can have activity abolished | anti-HIV activity (in words) ([1]; ATH8 cells, no additive): that activity was reduced relative to 1a; also recorded: reproducible, albeit unspectacular, activity; also recorded: only moderate anti-HIV activity | inhibition at 10 µM ([1]; 10 μM, no additive (Table IV experiment)): 13% | inhibition at 10 µM ([1]; 10 μM, with added ADA (0.7 U/ml)): 90% | Measured Relative Rate ([2]; 50 μM substrate, pH 7.4 and 37° C., ddA = 100): 0.04 | deamination product / product formation (in words) ([2]; 0.7 U/mL ADA, 37° C.): the corresponding inosine analogue, 1b, was the product formed | half-life at 50 µM ([2]; bovine, adenosine deaminase): 3 h | vmax ([2]; pH 7.4 and 37° C.): 5.5 × 10^-4 μmol/min/U | hydrolysis rate, times slower than 1a ([2]; vs 1a, 0.7 U/mL ADA, 37° C.): 135 times slower | binding to ADA, times tighter than 1i ([2]; vs 1i): about 70 times tighter | vmax, times slower than 1i ([2]; vs 1i): 50 times slower | hydrolysis by ADA, times slower than ddA ([2]; vs ddA, 50 μM substrate): ~2500 times slower
